From article PMC5898707, “Piperazinyl fragment improves anticancer activity of Triapine” (PLoS ONE, 2018)
Read-outs that look alike come from different tables or passages of the source.

Tests used:
cancer cell lines = assay: Cytotoxicity MTS assay, whole panel of cancer cell lines; assay type: cell-based; conditions: Homo sapiens, Hs 683; all the cancer lines, Hs683 an exception
Source text: (§1) The human colon carcinoma cell line HCT116 wild type (p53^+/+), human breast carcinoma cell line MCF-7 and glioblastoma cell line Hs683 were obtained from ATCC. The glioma cell line U-251 was purchased from Sigma Aldrich and the normal human fibroblast cell lines NHDF from PromoCell. The human colon cancer cell line HCT116 with a p53 deletion (p53^-/-) was kindly provided by Prof. M. Rusin from the Maria Sklodowska-Curie Memorial Cancer Centre and Institute of Oncology in Gliwice, Poland. Cells were grown as monolayer cultures in Dulbecco’s modified Eagle’s medium with an antibiotic gentamicin (200 μL/100 mL medium) in 75 cm^2 flasks (Nunc). DMEM for HCT116, MCF-7, U-251, Hs683 were supplemented with 12% heat-inactivated fetal bovine serum (Sigma) and for NHDF with 15% non-inactivated fetal bovine serum (Sigma). All the cell lines were cultured under standard conditions at 37°C in a humidified atmosphere at 5% CO2.
The cells were seeded in 96-well plates (Nunc) at a density of 5,000 cells/well (HCT116, MCF-7, U-251, Hs683) and 4,000 cells/well (NHDF) and incubated at 37°C for 24 h. […] The optical densities of the samples were analyzed at 490 nm using a multi-plate reader (Synergy 4, Bio Tek). Results were expressed as a percentage of the control and calculated as the inhibitory concentration (IC50) values using GraphPad Prism 5. […]

NHDF = assay: Cytotoxicity MTS assay, 72 h; assay type: cell-based; conditions: Homo sapiens, NHDF normal fibroblasts
Source text: as §1
(§2) The cells were seeded in 96-well plates (Nunc) at a density of 5,000 cells/well (HCT116, MCF-7, U-251, Hs683) and 4,000 cells/well (NHDF) and incubated at 37°C for 24 h. The assay was performed following a 72 h incubation with varying concentrations of the compounds that were tested. Then, 20 μL of The CellTiter 96®AQueous One Solution-MTS (Promega) solution was added to each well (with 100 μL DMEM without phenol red) and incubated for 1 h at 37°C. The optical densities of the samples were analyzed at 490 nm using a multi-plate reader (Synergy 4, Bio Tek). Results were expressed as a percentage of the control and calculated as the inhibitory concentration (IC50) values using GraphPad Prism 5. The IC50 parameter was defined as the compound concentration that was necessary to reduce the proliferation of cells to 50% of the untreated control. Each individual compound was tested in triplicate in a single experiment with each experiment being repeated four to five times.

Hs683 = assay: Cytotoxicity MTS assay, 72 h; assay type: cell-based, human; conditions: for IC50: Homo sapiens, Hs 683, Hs683, 72 h, MTS
Source text: as §1, §2

MCF-7 = assay: Cytotoxicity MTS assay, 72 h; assay type: cell-based, human; conditions: for IC50: Homo sapiens, MCF7, MCF-7, 72 h, MTS
Source text: as §1, §2

HCT116 p53^+/+ = assay: Cytotoxicity MTS assay, 72 h; assay type: cell-based, human; conditions: for IC50: Homo sapiens, HCT-116, HCT116 p53^+/+, 72 h, MTS
Source text: as §1, §2

U-251 = assay: Cytotoxicity MTS assay, 72 h; assay type: cell-based, human; conditions: for IC50: Homo sapiens, U-251, 72 h, MTS
Source text: as §1, §2

HCT116 p53^-/- = assay: Cytotoxicity MTS assay, 72 h; assay type: cell-based, human; conditions: for IC50: Homo sapiens, HCT-116, HCT116 p53^-/-, 72 h, MTS
Source text: as §1, §2

[1] = literature value; cited from earlier work
HCT116 p53^+/+ cells = assay: Western blot of cell cycle and cell death proteins; assay type: cell-based, human; conditions: 24 h, L^9 at four-fold IC50
Protocol: (§3) The HCT116 (p53^+/+), U-251 and MCF-7 cells were seeded in 3 cm Petri dishes (Nunc) at a density of 0.5·10^6 cells/well and incubated overnight. […] Cells were harvested by trypsinization, washed with cold PBS and cell pellets were obtained by centrifugation at 2,000 rpm. Total cell lysates were obtained by dissolving the cell pellets in 150 μL of a RIPA buffer (Thermo Scientific) containing a Halt Protease Inhibitor Cocktail (Thermo Scientific) or Halt Phosphatase Inhibitor Cocktail (Thermo Scientific) along with 0.5 M EDTA and lysed for 20 min on ice on a rocking plate. The lysates were then sonicated, centrifuged at 10,000 rpm for 10 min at 4°C and the supernatants were collected for further analysis. The protein concentration was determined using a Micro BCA™ Protein Assay Kit (Thermo Scientific) according to the manufacturer’s instructions. Equal amounts of proteins (15 μg) were electrophoresed on SDS-Page gels and transferred onto a nitrocellulose membranes. The membranes were blocked in 5% non-fat milk prepared in PBS containing 0.1% Tween-20 (TPBS) for 1 h. After blocking, the membranes were incubated with specific primary antibodies: PARP, p53, p21^Waf1/Cip1, cdc2, cyclin E, cytochrome c, caspase-3,8,9 and GAPPH overnight at 4°C, then washed and incubated with horseradish peroxidase (HRP)-conjugated secondary antibodies for 1 h at room temperature. All the antibodies were purchased from Cell Signaling and were diluted 1:1000 in 5% milk in TPBS. Finally, the membranes were washed and incubated with a SuperSignal™ West Pico Chemiluminescent Substrate (Thermo Scientific). The chemiluminescence signals were captured using a ChemiDoc™ XRS+ System (BioRad). The experiments were performed at least three times.

U-251 cells = assay: Western blot of cell cycle and cell death proteins; assay type: cell-based, human; conditions: 24 h
Protocol: as §3

MCF-7 cells = assay: Western blot of cell cycle and cell death proteins; assay type: cell-based, human; conditions: 24 h, L^9 at four-fold IC50
Protocol: as §3

[2] = Protonation constants by pH-dependent UV-visible spectrophotometric titration; assay type: physicochemical; conditions: MeOH/H2O 80/20 by weight, I = 0.1 M KCl, T = 25.0°C
Protocol: Spectrophotometric titrations were performed in order to probe the acid-based equilibria that were associated with each ligand and to determine the pH range over which the chelator was in its charge neutral form. This property is important in understanding the passage of a molecule through the cell membranes, as charged chelators have poor access. These studies were performed in an 80% (w/w) MeOH/H2O solvent mixture due to the low solubility of these compounds in pure water. The fully protonated forms of the ligands have four L^1-L^7 or five L^8-L^12 dissociable protons, respectively. […] An additional proton in L^8-L^12 derives from the additional pyridine, pyrimidine or pyrazine ring, respectively; however, not all of them could be determined under these experimental conditions. The protonation constants that were obtained are given in Table 1 and the species distribution diagram of the protonated species of the selected ligand is presented in Fig 3.
To determine the acid-base properties of the studied ligands, UV-visible spectrophotometric experiments as a function of p[H] were carried out in the pH range 2–11.
UV-Visible titrations were also carried out. The absorption spectra (200–800 nm) were recorded using a Jasco V630 spectrophotometer. The initial pH of 3.2 mL ligand samples was adjusted to be acidic or basic and the titration of the solution was then carried out by adding known volumes of NaOH or HCl, respectively. The spectrophotometric data were fitted using the HypSpec program. Distribution diagrams of the species were calculated using Hyperquad Simulation and Speciation (HySS) software.

Nc1cccnc1C=NNC(=S)N1CCN(c2ccc(Cl)cc2)CC1 [L^3, N’-[(3-aminopyridin-2-yl)methylidene]-4-(4-chlorophenyl)piperazine-1-carbothiohydrazide]
IC50 (cancer cell lines): 120 to 200 nM | melting point: 206 to 207 °C | IC50 (NHDF): > 25000 nM | IC50 (Hs683): 1480 ± 335 nM | IC50 (MCF-7): 204 ± 49 nM | IC50 (HCT116 p53^+/+): 120 ± 5 nM | IC50 (U-251): 128 ± 12 nM | IC50 (HCT116 p53^-/-): 167 ± 18 nM

NC(=S)NN=Cc1ncccc1N [Triapine, 3-aminopyridine-2-carboxaldehyde thiosemicarbazone]
logK1 [1]: 10.86 | logK2 [1]: 3.79 | logβ1H [1]: 10.86 (1)^[[45]^] | logβ2H [1]: 14.65 (1)^[[45]^] | IC50 (NHDF): > 25000 nM | Therapeutic index (TI) NHDF vs. Hs683 (Hs683): >14 | IC50 (Hs683): 1760 ± 292 nM | Therapeutic index (TI) NHDF vs. MCF-7 (MCF-7): >11 | IC50 (MCF-7): 2330 ± 431 nM | Therapeutic index (TI) NHDF vs. HCT116 p53^+/+ (HCT116 p53^+/+): >22 | IC50 (HCT116 p53^+/+): 1120 ± 277 nM | Therapeutic index (TI) NHDF vs. U-251 (U-251): >17 | IC50 (U-251): 1480 ± 558 nM | Therapeutic index (TI) NHDF vs. HCT116 p53^-/- (HCT116 p53^-/-): >19 | IC50 (HCT116 p53^-/-): 1340 ± 338 nM | cytochrome c (HCT116 p53^+/+ cells): release of cytochrome c | expression of cyclin E (HCT116 p53^+/+ cells): overexpression | cytochrome c (U-251 cells; U-251): release of cytochrome c | expression of cyclin E (U-251 cells; U-251, L^9 at four-fold IC50): overexpression | PARP cleavage (U-251 cells; glioma cell (U-251)): PARP cleavage | cytochrome c (MCF-7 cells): release of cytochrome c | expression of cdc2 (MCF-7 cells): much stronger | expression of cyclin E (MCF-7 cells): overexpression | logK1 [2]: 10.64 | logK2 [2]: 3.48 | logβ1H ([2]; error 1σ): 10.64 (1) | logβ2H ([2]; error 1σ): 14.12 (1)
